Values joined by “and” are separate entries in the source; they are usually repeats but may differ in a detail not shown here. Equal entries are not always repeated. Inconclusive results and toxic doses are left out. Rule for the calls: active = survival T/C of 150% or more; inactive = T/C below 125% in these data. Square brackets hold non-standard residues; d marks the D form. Peptide text beside a SMILES is read from it. ξ: configuration not given here. ξPhe(4-N(CH2CH2Cl)2) = NC(Cc1ccc(N(CCCl)CCCl)cc1)C(=O)O; Ac5c = NC1(C(=O)O)CCCC1; ξP = O=C(O)C1CCCN1
System: P388 leukemia ip, CD2F1 mice, survival T/C
Assay: NCI In Vivo Anticancer Drug Screen. Data for tumor model P388 Leukemia (intraperitoneal) in CD2F1 (CDF1) mice
Details: endpoint: median survival time, higher = longer survival
Method in brief: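 Mice carrying the transplanted tumor received test compound or vehicle. Survival was recorded in each group, and the value is the treated-group measurement divided by that of the vehicle-treated control group.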

[1] = dose: 3.12 mg/kg/injection, schedule: Q01DX009 (ip), vehicle: Klucel (hydroxypropylcellulose) (HPC)
[2] = dose: 6.25 mg/kg/injection, schedule: Q01DX009 (ip), vehicle: Klucel (hydroxypropylcellulose) (HPC)
[3] = dose: 12.5 mg/kg/injection, schedule: Q01DX009 (ip), vehicle: Klucel (hydroxypropylcellulose) (HPC)
[4] = dose: 60.0 mg/kg/injection, schedule: Q01DX005 (ip), vehicle: Klucel (hydroxypropylcellulose) (HPC)
[5] = dose: 100.0 mg/kg/injection, schedule: Q04DX003 (ip), vehicle: saline with Tween-80
[6] = dose: 200.0 mg/kg/injection, schedule: Q04DX003 (ip), vehicle: saline with Tween-80
[7] = dose: 100.0 mg/kg/injection, schedule: Q01DX001 (ip), vehicle: saline
[8] = dose: 200.0 mg/kg/injection, schedule: Q01DX001 (ip), vehicle: saline
[9] = dose: 50.0 mg/kg/injection, schedule: Q01DX009 (ip), vehicle: Klucel (hydroxypropylcellulose) (HPC)
[10] = dose: 100.0 mg/kg/injection, schedule: Q01DX009 (ip), vehicle: Klucel (hydroxypropylcellulose) (HPC)
[11] = dose: 200.0 mg/kg/injection, schedule: Q01DX009 (ip), vehicle: Klucel (hydroxypropylcellulose) (HPC)
[12] = dose: 50.0 mg/kg/injection, schedule: Q01DX005 (ip), vehicle: saline with Tween-80
[13] = dose: 100.0 mg/kg/injection, schedule: Q01DX005 (ip), vehicle: saline with Tween-80
[14] = dose: 200.0 mg/kg/injection, schedule: Q01DX005 (ip), vehicle: saline with Tween-80
[15] = dose: 50.0 mg/kg/injection, schedule: Q01DX009 (ip), vehicle: saline with Tween-80
[16] = dose: 100.0 mg/kg/injection, schedule: Q01DX009 (ip), vehicle: saline with Tween-80
[17] = dose: 200.0 mg/kg/injection, schedule: Q01DX009 (ip), vehicle: saline with Tween-80
[18] = dose: 400.0 mg/kg/injection, schedule: Q01DX009 (ip), vehicle: saline with Tween-80
[19] = dose: 50.0 mg/kg/injection, schedule: Q01DX005 (ip), vehicle: saline
[20] = dose: 100.0 mg/kg/injection, schedule: Q01DX005 (ip), vehicle: saline
[21] = dose: 200.0 mg/kg/injection, schedule: Q01DX005 (ip), vehicle: saline
[22] = dose: 60.0 mg/kg/injection, schedule: Q01DX005 (ip), vehicle: saline with Tween-80
[23] = dose: 120.0 mg/kg/injection, schedule: Q01DX005 (ip), vehicle: saline with Tween-80
[24] = dose: 100.0 mg/kg/injection, schedule: Q01DX001 (ip), vehicle: saline with Tween-80
[25] = dose: 200.0 mg/kg/injection, schedule: Q01DX001 (ip), vehicle: saline with Tween-80

Measured: T/C

N#CN=[N+]([O-])c1cccc(Cl)c1
inactive: [1] 101 % of control | [2] 108 % of control | dose: 6.25 mg/kg/injection, schedule: Q04DX003 (ip), vehicle: Klucel (hydroxypropylcellulose) (HPC) 101 % of control | [3] 98 % of control | dose: 12.5 mg/kg/injection, schedule: Q04DX003 (ip), vehicle: Klucel (hydroxypropylcellulose) (HPC) 104 % of control | dose: 25.0 mg/kg/injection, schedule: Q04DX003 (ip), vehicle: Klucel (hydroxypropylcellulose) (HPC) 91 % of control

CNC(=S)NC(C)(C)C
inactive: dose: 15.0 mg/kg/injection, schedule: Q01DX005 (ip), vehicle: Klucel (hydroxypropylcellulose) (HPC) 97 % of control | dose: 30.0 mg/kg/injection, schedule: Q01DX005 (ip), vehicle: Klucel (hydroxypropylcellulose) (HPC) 97 % of control | [4] 103 % of control and 98 % of control

CC1(C)c2ccccc2Nc2ccccc21
inactive: [5] 100 % of control | [6] 91 % of control

CC1OC(n2cc(F)c(=O)[nH]c2=O)CC1O (stereo not drawn)
inactive: dose: 50.0 mg/kg/injection, schedule: Q01DX001 (ip), vehicle: saline 104 % of control | [7] 106 % of control | [8] 105 % of control

COc1ccc([N+](=O)[O-])cc1NC(=O)C1C(=O)C(=O)N(c2cc([N+](=O)[O-])ccc2OC)C1=O (stereo not drawn)
inactive: [9] 100 % of control | [10] 100 % of control | [11] 115 % of control

O=C1OC(=O)C2C1C1(c3ccccc3)OC2(c2ccccc2)c2ccccc21 (stereo not drawn)
inactive: [5] 110 % of control | [6] 109 % of control | dose: 400.0 mg/kg/injection, schedule: Q04DX003 (ip), vehicle: saline with Tween-80 118 % of control

NC(CO)C(=O)NC(CCC(=O)O)C(=O)NC(CO)C(=O)NC(CCC(=O)O)C(=O)NC(Cc1ccc(N(CCCl)CCCl)cc1)C(=O)O (stereo not drawn) (H-SESE[ξPhe(4-N(CH2CH2Cl)2)]-OH; configuration not given here)
inactive: dose: 5.0 mg/kg/injection, schedule: Q04DX003 (ip), vehicle: water 96 % of control | dose: 10.0 mg/kg/injection, schedule: Q04DX003 (ip), vehicle: water 98 % of control | dose: 20.0 mg/kg/injection, schedule: Q04DX003 (ip), vehicle: water 101 % of control | dose: 40.0 mg/kg/injection, schedule: Q04DX003 (ip), vehicle: water 102 % of control and 111 % of control | dose: 80.0 mg/kg/injection, schedule: Q04DX003 (ip), vehicle: water 117 % of control

CC(C)C(O)Cc1cc(=O)[nH]c2ccccc12 (stereo not drawn)
inactive: dose: 100.0 mg/kg/injection, schedule: Q04DX002 (ip), vehicle: saline with Tween-80 87 % of control | dose: 200.0 mg/kg/injection, schedule: Q04DX002 (ip), vehicle: saline with Tween-80 87 % of control | dose: 400.0 mg/kg/injection, schedule: Q04DX002 (ip), vehicle: saline with Tween-80 86 % of control

CCC(C)(S)CN (stereo not drawn)
inactive: [7] 90 % of control | [8] 90 % of control | dose: 400.0 mg/kg/injection, schedule: Q01DX001 (ip), vehicle: saline 92 % of control

O=C(CCN1CCCCC1)Nc1ccc(F)c(Cl)c1
inactive: [12] 93 % of control | [13] 102 % of control | [14] 93 % of control

COc1ccc(C(C)(c2cc(C(C)(C)C)c(O)c(C(C)(C)C)c2)n2ccnc2)cc1 (stereo not drawn)
inactive: [12] 98 % of control | [13] 94 % of control | [14] 91 % of control

Cc1nc(Nc2ccccc2C)c2ccsc2n1
inactive: dose: 50.0 mg/kg/injection, schedule: Q01DX005 (ip), vehicle: Klucel (hydroxypropylcellulose) (HPC) 91 % of control | dose: 100.0 mg/kg/injection, schedule: Q01DX005 (ip), vehicle: Klucel (hydroxypropylcellulose) (HPC) 87 % of control

O=C(CBr)Oc1ccc([N+](=O)[O-])cc1
inactive: [12] 102 % of control | [13] 100 % of control | [14] 100 % of control

S=C1SCN(C2CCCCCCCCCCC2)CN1C1CCCCCCCCCCC1
inactive: [15] 94 % of control | [16] 93 % of control | [17] 97 % of control | [18] 101 % of control

NC1CCOC1=O (stereo not drawn)
inactive: [19] 100 % of control | [20] 103 % of control | [21] 100 % of control

CC1=CC(C)(C2(C)C=C(C)NC(=O)N2)NC(=O)N1 (stereo not drawn)
inactive: dose: 25.0 mg/kg/injection, schedule: Q01DX001 (ip), vehicle: Klucel (hydroxypropylcellulose) (HPC) 99 % of control | dose: 50.0 mg/kg/injection, schedule: Q01DX001 (ip), vehicle: Klucel (hydroxypropylcellulose) (HPC) 98 % of control | dose: 100.0 mg/kg/injection, schedule: Q01DX001 (ip), vehicle: Klucel (hydroxypropylcellulose) (HPC) 99 % of control

O=c1c(Cl)cc(Cl)cn1S(=O)(=O)c1ccc([N+](=O)[O-])cc1
inactive: dose: 25.0 mg/kg/injection, schedule: Q01DX009 (ip), vehicle: saline with Tween-80 106 % of control | [15] 105 % of control | [16] 100 % of control and 104 % of control | [17] 104 % of control and 89 % of control | [18] 89 % of control

CCC1(C#N)N=C(c2ccccc2)c2ccccc2N1C(=O)Oc1ccccc1 (stereo not drawn)
inactive: [12] 89 % of control | [13] 98 % of control | [14] 95 % of control

O=C(OC1CCCc2ccccc21)c1ccc(N=Nc2ccccc2)cc1 (stereo not drawn)
inactive: [22] 95 % of control | [23] 88 % of control

CCCCNc1cc(-c2c(N)nc(N)nc2CC)ccc1[N+](=O)[O-]
inactive: [12] 101 % of control | [13] 101 % of control | [14] 94 % of control

COC(=O)/C(=C/C=C(c1ccccc1)c1ccccc1)N(C(C)=O)C(C)=O
inactive: [24] 104 % of control | [25] 104 % of control | dose: 400.0 mg/kg/injection, schedule: Q01DX001 (ip), vehicle: saline with Tween-80 96 % of control

C=CC1CCC[S+]1CC(=O)C(Cl)(Cl)Cl (stereo not drawn)
inactive: [24] 102 % of control | [25] 109 % of control

NC1(C(=O)N2CCCC2C(=O)O)CCCC1 (stereo not drawn) (H-[Ac5c]-[ξP]-OH)
inactive: [19] 96 % of control | [20] 89 % of control | [21] 108 % of control

NC(=O)C1=Cc2cccn2-c2ccccc2S1
inactive: [4] 105 % of control | dose: 120.0 mg/kg/injection, schedule: Q01DX005 (ip), vehicle: Klucel (hydroxypropylcellulose) (HPC) 101 % of control

C[n+]1[se]c2ccccc2c1Cl
inactive: [1] 105 % of control | [2] 99 % of control | [3] 99 % of control and 89 % of control

O=C(O)CCC(=O)NCCOC(=O)CCC(=O)O
inactive: dose: 50.0 mg/kg/injection, schedule: Q01DX009 (ip), vehicle: saline 99 % of control | dose: 100.0 mg/kg/injection, schedule: Q01DX009 (ip), vehicle: saline 104 % of control | dose: 200.0 mg/kg/injection, schedule: Q01DX009 (ip), vehicle: saline 106 % of control

CN(Cc1ccccc1)C1=CC(=O)C(N(C)Cc2ccccc2)=CC1=O
inactive: [12] 105 % of control | [13] 115 % of control | [14] 101 % of control

COc1cc(C(c2c(O)c3ccccc3oc2=O)c2c(O)c3ccccc3oc2=O)cc(OC)c1O
inactive: [22] 99 % of control | [23] 111 % of control

CCN(CC)c1ccc(C(NCCC(C)C)C(Cl)(Cl)Cl)cc1 (stereo not drawn)
inactive: [19] 97 % of control | [20] 101 % of control | [21] 101 % of control

O=C1NCC(N2C(=O)CC3(CCCC3)C2=O)O1 (stereo not drawn)
inactive: [9] 100 % of control | [10] 94 % of control | [11] 91 % of control

Cc1ccccc1N=C(N)Nc1ccccc1C
inactive: dose: 2.5 mg/kg/injection, schedule: Q01DX009 (ip), vehicle: saline with Tween-80 95 % of control | dose: 5.0 mg/kg/injection, schedule: Q01DX009 (ip), vehicle: saline with Tween-80 100 % of control | dose: 10.0 mg/kg/injection, schedule: Q01DX009 (ip), vehicle: saline with Tween-80 100 % of control

Nc1nc2ccccc2c2c1C(=O)NC2=O
inactive: [15] 104 % of control | [16] 86 % of control | [17] 90 % of control
